Assay results from the Kinase Knowledgebase extract (Sharma et al. 2016).
pIC50: −log10 of the molar value. Where “and” joins values, the source holds several entries; their conditions need not be identical. Equal values may be shown once.

target: PIK3CA (human) (UniProt P42336); assay: Inhibition of PIK3CA Kinase Activity
Sequence (P42336 whole entry, looked up): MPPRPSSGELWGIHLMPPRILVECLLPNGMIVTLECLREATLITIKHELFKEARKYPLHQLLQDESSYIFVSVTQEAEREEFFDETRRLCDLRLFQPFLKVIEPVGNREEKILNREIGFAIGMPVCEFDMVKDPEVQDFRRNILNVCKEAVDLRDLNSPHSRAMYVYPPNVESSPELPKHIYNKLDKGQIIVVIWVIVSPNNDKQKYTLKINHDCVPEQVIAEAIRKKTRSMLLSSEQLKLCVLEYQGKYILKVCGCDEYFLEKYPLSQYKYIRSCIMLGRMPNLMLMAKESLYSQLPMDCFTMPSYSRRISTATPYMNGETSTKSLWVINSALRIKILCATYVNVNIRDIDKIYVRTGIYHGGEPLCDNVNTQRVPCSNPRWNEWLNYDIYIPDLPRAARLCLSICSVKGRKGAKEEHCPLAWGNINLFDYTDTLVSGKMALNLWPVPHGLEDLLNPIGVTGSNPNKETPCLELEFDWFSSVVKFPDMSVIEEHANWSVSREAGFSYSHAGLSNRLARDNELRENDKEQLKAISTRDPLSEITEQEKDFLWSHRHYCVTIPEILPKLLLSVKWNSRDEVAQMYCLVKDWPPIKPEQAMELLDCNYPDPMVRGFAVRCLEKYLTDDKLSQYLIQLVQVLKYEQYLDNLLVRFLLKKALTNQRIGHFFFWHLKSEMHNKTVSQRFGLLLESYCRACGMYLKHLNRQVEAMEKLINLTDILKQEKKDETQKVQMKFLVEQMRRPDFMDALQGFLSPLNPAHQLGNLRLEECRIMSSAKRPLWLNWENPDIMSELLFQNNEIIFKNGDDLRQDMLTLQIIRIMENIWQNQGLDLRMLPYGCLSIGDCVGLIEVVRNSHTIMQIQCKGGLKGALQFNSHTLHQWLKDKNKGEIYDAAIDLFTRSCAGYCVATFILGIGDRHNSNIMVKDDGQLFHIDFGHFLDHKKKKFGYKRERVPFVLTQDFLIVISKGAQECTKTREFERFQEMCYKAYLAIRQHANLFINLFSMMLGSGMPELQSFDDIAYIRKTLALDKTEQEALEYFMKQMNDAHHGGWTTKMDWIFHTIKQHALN

pIC50	SMILES
6.14	Cc1nc(-c2cn3c(n2)-c2cc([C@H](C)N4CCN(CC(C)(C)O)CC4)c(F)cc2OCC3)n(C(C)C)n1
6.66	Cc1nc(-c2cn3c(n2)-c2cc([C@@H](C)N4CCN(C(C)(C)CO)CC4)ncc2OCC3)n(C(C)C)n1
6.76	Cc1nc(-c2cn3c(n2)-c2cc(C(=O)N4CCN(C(C)(C)CO)CC4)c(F)cc2OCC3)n(C(C)C)n1
7.31	Cc1nc(-c2cn3c(n2)-c2cc(C(C)N4CCN(C)CC4)c(F)cc2OCC3)n(C(C)C)n1 (configuration not stated)
7.15	Cc1nc(-c2cn3c(n2)-c2ccc(OC4(CC5CC5)CN(C(C)C)C4)cc2OCC3)n(C(C)C)n1
7.95	Cc1nc(-c2cn3c(n2)-c2ccc(-c4cnn(C)c4C4CCCCN4CC(C)(C)O)cc2OCC3)n(C(C)C)n1 (configuration not stated)
7.19 and 7.18 and 7.26	CCN(CC)C1CCOC(c2c(-c3ccc4c(c3)OCCn3cc(-c5nc(C)nn5C(C)C)nc3-4)cnn2C)C1 (configuration not stated)
7.85 and 8.18	Cc1nc(-c2cn3c(n2)-c2ccc(N4CCCC4CN(C)C)cc2OCC3)n(C(C)C)n1 (configuration not stated)
6.71	Cc1nc(-c2cn3c(n2)-c2cc(C(O)C4CCN(C)CC4)ccc2OCC3)n(C(C)C)n1 (configuration not stated)
7.01 and 7.32	COc1cc2c(cc1[C@@H](C)N1CCN(C(C)(C)C)CC1)-c1nc(-c3nc(C)nn3C(C)C)cn1CCO2
6.95	Cc1nc(-c2cn3c(n2)-c2ccc(-c4cnn(C(C)C)c4CN4CCN(C)CC4)cc2OCC3)n(C(C)C)n1
6.77	Cc1nc(-c2cn3c(n2)-c2cc([C@@H](C)N4CCN(C(C)C)CC4)c(F)cc2OCC3)n(C(C)C)n1
7.41	CC(C)n1nc(N)nc1-c1cn2c(n1)-c1ccc(-c3ccnn3C3CCN(C)CC3)cc1OCC2
7.28	Cc1nc(-c2cn3c(n2)-c2cc([C@@H](C)N4CCN(C(C)(C)C)CC4)c(C)cc2OCC3)n(C(C)C)n1
8.04	Cc1nc(-c2cn3c(n2)-c2ccc(OC4(C)CCN(C(C)C)C4)cc2OCC3)n(C(C)C)n1 (configuration not stated)
7.06	CCN1CCN(C(C)c2cc3c(cc2F)OCCn2cc(-c4nc(C)nn4C(C)C)nc2-3)CC1 (configuration not stated)
6.58	Cc1nc(-c2cn3c(n2)-c2cc([C@@H](C)N4CCN(C(C)(C)CO)CC4)c(F)cc2OCC3)n(C(C)C)n1
7.82	Cc1nc(-c2cn3c(n2)-c2ccc(N4CCC4C4CCN(C(C)C)CC4)cc2OCC3)n(C(C)C)n1 (configuration not stated)
6.76	Cc1cc2c(cc1-c1ccnn1C1CCN(C)CC1)OCCn1cc(-c3ncnn3C(C)C)nc1-2
8.20	Cc1nc(-c2cn3c(n2)-c2ccc(N4CCC[C@H]4CN4CCCC4)cc2OCC3)n(C(C)C)n1
7.89 and 8.28 and 7.77	Cc1nc(-c2cn3c(n2)-c2ccc(N4CCCC45CCCN(C)C5)cc2OCC3)n(C(C)C)n1 (configuration not stated)

pIC50	SMILES
7.68	Cc1nc(-c2cn3c(n2)-c2ccc(-c4cnn(C)c4[C@H]4CCCN(C(C)C)C4)cc2OCC3)n(C(C)C)n1
6.66	Cc1nc(-c2cn3c(n2)-c2cc([C@H](C)N4CCN(C(C)(C)C)CC4)ncc2OCC3)n(C(C)C)n1
6.62	CC(C)n1ncnc1-c1cn2c(n1)-c1ccc(-c3ccccc3S(N)(=O)=O)cc1OCC2
7.89	CC(C)n1ncnc1-c1cn2c(n1)-c1cnc(N3CCCC3CN3CCCC3)cc1OCC2 (configuration not stated)
6.73	Cc1nc(-c2cn3c(n2)-c2ccc(-c4ccnn4C4CCCN(Cc5ccccc5)C4)cc2OCC3)n(C(C)C)n1 (configuration not stated)
7.97	Cc1nc(-c2cn3c(n2)-c2ccc(-c4ccnn4[C@@H]4CCCN(C(C)(C)CO)C4)cc2OCC3)n(C(C)C)n1
6.95	Cc1nc(-c2cn3c(n2)-c2ccc(-c4cnn(C(C)C)c4CN4CCN(C(C)(C)C)CC4)cc2OCC3)n(C(C)C)n1
6.68	Cc1nc(-c2cn3c(n2)-c2cc(-c4ccnn4[C@H]4CCCN(C5COC5)C4)c(F)cc2OCC3)n(C(C)C)n1
7.83	Cc1nc(-c2cn3c(n2)-c2ccc(N4CCCC4C4CCN(S(C)(=O)=O)CC4)cc2OCC3)n(C(C)C)n1 (configuration not stated)
6.90	Cc1nc(-c2cn3c(n2)-c2ccc(-n4ccnc4C4CCCN(C(C)C)C4)cc2OCC3)n(C(C)C)n1 (configuration not stated)
7.37	Cc1nc(-c2cn3c(n2)-c2ccc(-c4ccnn4[C@H]4CCCN(C(C)(C)CO)C4)cc2OCC3)n(C(C)C)n1
7.22	Cc1nc(-c2cn3c(n2)-c2cc([C@H](C)N4CCN(C(C)C)CC4)c(F)cc2OCC3)n(C(C)C)n1
6.72	Cc1nc(-c2cn3c(n2)-c2cc(C(=O)N4CCN(C(C)(C)C)CC4)c(F)cc2OCC3)n(C(C)C)n1
7.23	Cc1nc(-c2cn3c(n2)-c2ccc(-c4cnn(C)c4[C@@H]4CCCN(C(C)C)C4)cc2OCC3)n(C(C)C)n1
8.47	Cc1nc(-c2cn3c(n2)-c2ccc(N4CCC4[C@@H]4CCCN(C(C)C)C4)cc2OCC3)n(C(C)C)n1 (some centres not stated)
7.55	Cc1nc(-c2cn3c(n2)-c2ccc(-c4cn(C)nc4C4CCCN(C(C)C)C4)cc2OCC3)n(C(C)C)n1 (configuration not stated)
7.09	CC(C)n1nc(N)nc1-c1cn2c(n1)-c1ccc(-c3ccnn3C3CCN(C(C)(C)C)CC3)cc1OCC2
7.60	CC(C)n1ncnc1-c1cn2c(n1)-c1cc(C(=O)N3CCN(C(C)(C)C)CC3)ccc1OCC2
6.98	Cc1nc(-c2cn3c(n2)-c2ccc(OC4(c5ccccc5)CN(C(C)C)C4)cc2OCC3)n(C(C)C)n1
8.04	Cc1nc(-c2cn3c(n2)-c2cnc(-c4cnn(C)c4C4CCCN(C(C)C)C4)cc2OCC3)n(C(C)C)n1 (configuration not stated)
7.48	Cc1nc(-c2cn3c(n2)-c2ccc(-c4ccnn4C4CCN(C(C)C)CC4)cc2OCC3)n(C(C)C)n1

pIC50	SMILES
6.61	Cc1nc(-c2cn3c(n2)-c2cc([C@H](C)N4CCN(C(C)(C)C)CC4)c(F)cc2OCC3)n(C(C)C)n1
7.84	Cc1nc(-c2cn3c(n2)-c2ccc(-c4ccnn4C4CCCN(C(C)(C)CO)C4)cc2OCC3)n(C(C)C)n1 (configuration not stated)
6.84	Cc1nc(-c2cn3c(n2)-c2ccc(-c4cnc(C)n4C4CCCN(C(C)C)C4)cc2OCC3)n(C(C)C)n1 (configuration not stated)
7.44	Cc1nc(-c2cn3c(n2)-c2cc(-c4ccnn4[C@@H]4CCCN(C5COC5)C4)c(F)cc2OCC3)n(C(C)C)n1
6.90	Cc1nc(-c2cn3c(n2)-c2cc(C(C)N4CCN(C5COC5)CC4)c(C)cc2OCC3)n(C(C)C)n1 (configuration not stated)
7.21 and 7.04	COc1cc2c(cc1[C@H](C)N1CCN(C(C)(C)C)CC1)-c1nc(-c3nc(C)nn3C(C)C)cn1CCO2
7.05	Cc1nc(-c2cn3c(n2)-c2cc([C@@H](C)N4CCN(C(C)C)CC4)c(C)cc2OCC3)n(C(C)C)n1
6.74	Cc1nc(-c2cn3c(n2)-c2cc([C@@H](C)N4CCN(CC(C)(C)O)CC4)c(F)cc2OCC3)n(C(C)C)n1
7.72	CCN1CCC(C2CCCN2c2ccc3c(c2)OCCn2cc(-c4nc(C)nn4C(C)C)nc2-3)CC1 (configuration not stated)
7.24	Cc1nc(-c2cn3c(n2)-c2ccc(-c4cnn(C)c4C4CCCN(C(C)C)C4)cc2OCC3)n(C(C)C)n1 (configuration not stated)
6.08	Cc1nc(-c2cn3c(n2)-c2ccc(-c4ncnn4C4CCN(C(C)(C)C)CC4)cc2OCC3)n(C(C)C)n1
7.14	Cc1nc(-c2cn3c(n2)-c2ccc(N4CCCC45CCCN(C(C)C)C5)cc2OCC3)n(C(C)C)n1 (configuration not stated)
7.27	CC(C)n1ncnc1-c1cn2c(n1)-c1cc(CN3CCN(C(C)(C)C)CC3)ccc1OCC2
7.67 and 7.34 and 7.93	Cc1nc(-c2cn3c(n2)-c2ccc(N4CCC4C4CCN(C)CC4)cc2OCC3)n(C(C)C)n1 (configuration not stated)
7.06	Cc1nc(-c2cn3c(n2)-c2ccc(OC4(CN5CCN(C)CC5)CC4)cc2OCC3)n(C(C)C)n1
6.37	Cc1nc(-c2cn3c(n2)-c2cc([C@H](C)N4CCN(C(C)(C)CO)CC4)c(F)cc2OCC3)n(C(C)C)n1
7.64 and 8.13	Cc1nc(-c2cn3c(n2)-c2ccc(-c4cn[nH]c4C4CCCN(C(C)C)C4)cc2OCC3)n(C(C)C)n1 (configuration not stated)
8.21	Cc1nc(-c2cn3c(n2)-c2ccc(OC4(C)CNC4)cc2OCC3)n(C(C)C)n1
7.32 and 7.71	Cc1nc(-c2cn3c(n2)-c2cc(-c4ccnn4[C@@H]4CCCN(C(C)(C)CO)C4)c(F)cc2OCC3)n(C(C)C)n1
7.51 and 7.04 and 7.49	Cc1nc(-c2cn3c(n2)-c2ccc(-c4cnn(C)c4C4CCCN(C(C)(C)CO)C4)cc2OCC3)n(C(C)C)n1 (configuration not stated)
7.86	CC(C)n1ncnc1-c1cn2c(n1)-c1cnc(N3CCCC3C3CCN(C)CC3)cc1OCC2 (configuration not stated)

pIC50	SMILES
7.66	Cc1nc(-c2cn3c(n2)-c2ccc(N4CCC[C@@H]4CN4CCCC4)cc2OCC3)n(C(C)C)n1
7.16	Cc1nc(-c2cn3c(n2)-c2ccc(OC4(CC5CC5)CNC4)cc2OCC3)n(C(C)C)n1
7.94	Cc1nc(-c2cn3c(n2)-c2cc(-c4ccnn4[C@@H]4CCCN(C(C)C)C4)c(F)cc2OCC3)n(C(C)C)n1
8.73 and 8.72	Cc1nc(-c2cn3c(n2)-c2cnc(N4CCCC4C4CCCCN4C)cc2OCC3)n(CC(F)(F)F)n1 (configuration not stated)
7.66	Cc1nc(-c2cn3c(n2)-c2ccc(N4CCC[C@@H]4C4CCN(C(C)C)CC4)cc2OCC3)n(C(C)C)n1
7.35	Cc1nc(-c2cn3c(n2)-c2ccc(-c4ccnn4C4CCCN(C5(C)COC5)C4)cc2OCC3)n(C(C)C)n1 (configuration not stated)
7.00	Cc1nc(-c2cn3c(n2)-c2ccc(-c4ccnn4C4CC(C)N(C)C(C)C4)cc2OCC3)n(C(C)C)n1 (configuration not stated)
8.20	CC(Oc1ccc2c(c1)OCCn1cc(-c3ncnn3C(C)C)nc1-2)C1CCN(C(C)C)CC1 (configuration not stated)
7.62	Cc1nc(-c2cn3c(n2)-c2cc([C@H](C)N4CCN(C(C)(C)C)CC4)c(C)cc2OCC3)n(C(C)C)n1
7.69	Cc1nc(-c2cn3c(n2)-c2ccc(N4CCC[C@H]4C4CCN(C(C)C)CC4)cc2OCC3)n(C(C)C)n1
6.56	Cc1nc(-c2cn3c(n2)-c2ccc(OC4(CC(C)C)CN(C(C)C)C4)cc2OCC3)n(C(C)C)n1
7.70 and 6.98	Cc1nc(-c2cn3c(n2)-c2cc(-c4cnn(C)c4C4CCCN(C(C)C)C4)c(F)cc2OCC3)n(C(C)C)n1 (configuration not stated)
7.35	Cc1nc(-c2cn3c(n2)-c2ccc(-c4ccnn4C4CCN(C(C)(C)C)CC4)cc2OCC3)n(C(C)C)n1
8.63	Cc1nc(-c2cn3c(n2)-c2ccc(-c4cnn(C)c4N4CCN(C)[C@H](C(C)C)C4)cc2OCC3)n(C(C)C)n1
8.06	Cc1nc(-c2cn3c(n2)-c2cc([C@H](C)N4CCN(C(C)C)CC4)c(C)cc2OCC3)n(C(C)C)n1
7.09	Cc1nc(-c2cn3c(n2)-c2cc([C@@H](C)N4CCN(C(C)(C)C)CC4)ncc2OCC3)n(C(C)C)n1
6.60	Cc1nc(-c2cn3c(n2)-c2cc(C(C)N4CCN(C(C)(C)C)CC4)c(F)cc2OCC3)n(C(C)C)n1 (configuration not stated)
7.13 and 7.31	Cc1nc(-c2cn3c(n2)-c2ccc(N4CCCC4C4CCN(CC(C)(C)O)CC4)cc2OCC3)n(C(C)C)n1 (configuration not stated)
7.48	Cc1nc(-c2cn3c(n2)-c2ccc(OC4CC(C)CN(C(C)C)C4)cc2OCC3)n(C(C)C)n1 (configuration not stated)
